ChEMBL document CHEMBL3044793, “Antihepatotoxic activity of ferolactone, a new furanocoumarin from Feronia limonia” (2012)
Calls of active or inactive are those of the source. No cut-off for these calls is given here.

Assays:
Rattus norvegicus [1] = assay: Hepatoprotective activity against CCl4-induced toxicity in Rattus norvegicus Wistar albino (rat) assessed as total albumin level at 50 mg/kg, po administered QD for 6 days measured on day 8 (reference value: 2.33 +/- 0.18 g/dl); type: functional
Rattus norvegicus [2] = assay: Hepatoprotective activity against CCl4-induced toxicity in Rattus norvegicus Wistar albino (rat) assessed as clear central vein at 50 mg/kg, po administered QD for 6 days measured on day 8 by hematoxylin and eosin staining-based microscopic analysis; type: functional, organism-based; set-up: dose 50 mg/kg
Rattus norvegicus [3] = assay: Hepatoprotective activity against CCl4-induced toxicity in Rattus norvegicus Wistar albino (rat) assessed as normal parenchyma at 50 mg/kg, po administered QD for 6 days measured on day 8 by hematoxylin and eosin staining-based microscopic analysis; type: functional, organism-based; set-up: dose 50 mg/kg
Rattus norvegicus [4] = assay: Hepatoprotective activity in Rattus norvegicus Wistar albino (rat) assessed as reduction in CCl4-induced lymphocytic infiltration at 50 mg/kg, po administered QD for 6 days measured on day 8 by hematoxylin and eosin staining-based microscopic analysis; type: functional, organism-based; set-up: dose 50 mg/kg
Rattus norvegicus [5] = assay: Hepatoprotective activity in Rattus norvegicus Wistar albino (rat) assessed as reduction in CCl4-induced increase in SGPT level at 50 mg/kg, po administered QD for 6 days measured on day 8 by colorimetric analysis relative to control; type: functional; set-up: scale not given: the % may be the effect or the level left
Rattus norvegicus [6] = assay: Hepatoprotective activity in Rattus norvegicus Wistar albino (rat) assessed as reduction in CCl4-induced increase in alkaline phosphatase level at 50 mg/kg, po administered QD for 6 days measured on day 8 relative to control; type: functional; set-up: scale not given: the % may be the effect or the level left
Rattus norvegicus [7] = assay: Hepatoprotective activity in Rattus norvegicus Wistar albino (rat) assessed as increase in CCl4-induced reduction in total protein level at 50 mg/kg, po administered QD for 6 days measured on day 8 relative to control; type: functional; set-up: scale not given: the % may be the effect or the level left
Rattus norvegicus [8] = assay: Hepatoprotective activity in Rattus norvegicus Wistar albino (rat) assessed as reduction in CCl4-induced necrosis at 50 mg/kg, po administered QD for 6 days measured on day 8 by hematoxylin and eosin staining-based microscopic analysis; type: functional, organism-based; set-up: dose 50 mg/kg
Rattus norvegicus [9] = assay: Hepatoprotective activity in Rattus norvegicus Wistar albino (rat) assessed as reduction in CCl4-induced hepatocyte injury at 50 mg/kg, po administered QD for 6 days measured on day 8 by hematoxylin and eosin staining-based microscopic analysis; type: functional, organism-based; set-up: dose 50 mg/kg
Rattus norvegicus [10] = assay: Hepatoprotective activity in Rattus norvegicus Wistar albino (rat) assessed as reduction in CCl4-induced fatty accumulation at 50 mg/kg, po administered QD for 6 days measured on day 8 by hematoxylin and eosin staining-based microscopic analysis; type: functional, organism-based; set-up: dose 50 mg/kg
Rattus norvegicus [11] = assay: Hepatoprotective activity in Rattus norvegicus Wistar albino (rat) assessed as reduction in CCl4-induced increase in SGOT level at 50 mg/kg, po administered QD for 6 days measured on day 8 by colorimetric analysis relative to ocntrol; type: functional; set-up: scale not given: the % may be the effect or the level left
Rattus norvegicus [12] = assay: Hepatoprotective activity against CCl4-induced toxicity in Rattus norvegicus Wistar albino (rat) assessed as normal portal triad at 50 mg/kg, po administered QD for 6 days measured on day 8 by hematoxylin and eosin staining-based microscopic analysis; type: functional, organism-based; set-up: dose 50 mg/kg

COc1c2ccoc2c(OC/C=C(\C)CC2C=C(C)C(=O)O2)c2oc(=O)ccc12 (configuration not stated) [FEROLACTONE]
Activity (Rattus norvegicus [1]): 3.44 g/dL
Activity (Rattus norvegicus [2]): Active
Activity (Rattus norvegicus [3]): Active
Activity (Rattus norvegicus [4]): Active
Activity (Rattus norvegicus [5]): 39.63%
Activity (Rattus norvegicus [6]): 41.16%
Activity (Rattus norvegicus [7]): 36.15%
Activity (Rattus norvegicus [8]): Active
Activity (Rattus norvegicus [9]): Active
Activity (Rattus norvegicus [10]): Active
Activity (Rattus norvegicus [11]): 43.44%
Activity (Rattus norvegicus [12]): Active
